Test results from ChEMBL document CHEMBL3885881, “DrugMatrix”.

Species: Rattus norvegicus
Test: DrugMatrix - Regimen: Daily Repeat
Assay type: toxicity, organism-based, Sprague-Dawley
Set-up: regimen Daily Repeat, gender Male, age 6-8 weeks
Settings: in vivo, po, route oral GAVAGE, […]; for ABSOLUTE BASOPHIL / ABSOLUTE EOSINOPHIL / ABSOLUTE LYMPHOCYTE / ABSOLUTE MONOCYTE / ABSOLUTE SEGMENTED NEUTROPHIL / BASOPHIL / EOSINOPHIL / ERYTHROCYTE COUNT / HEMATOCRIT / HEMOGLOBIN / LEUKOCYTE COUNT / LYMPHOCYTE / MEAN CORPUSCULAR HEMOGLOBIN / MEAN CORPUSCULAR HEMOGLOBIN CONCENTRATION / MEAN CORPUSCULAR VOLUME / MONOCYTE / NEUTROPHIL / NUCLEATED RED BLOOD CELLS / PLATELET COUNT: tissue Blood; for ALANINE AMINOTRANSFERASE / ALBUMIN / ALKALINE PHOSPHATASE / ASPARTATE AMINOTRANSFERASE / BLOOD UREA NITROGEN / CARBON DIOXIDE / CHLORIDE / CHOLESTEROL / CREATINE PHOSPHOKINASE / CREATININE / GLUCOSE / LACTATE DEHYDROGENASE / LIPASE / PHOSPHORUS / POTASSIUM / SODIUM / TOTAL BILIRUBIN / TOTAL PROTEIN / URIC ACID: tissue Plasma
[1] = 0 mg/kg, 72 h, dose level Control, time 3 day
[2] = 0 mg/kg, 120 h, dose level Control, time 5 day
[3] = 10 mg/kg, 72 h, dose level Low, time 3 day

Compound: c1ccc2[nH]c(-c3cscn3)nc2c1 [THIABENDAZOLE]
- ABSOLUTE BASOPHIL [1]: 0 CELLS/uL
- ABSOLUTE EOSINOPHIL [1]: 13.67 CELLS/uL
- ABSOLUTE LYMPHOCYTE [1]: 10069.5 CELLS/uL
- ABSOLUTE MONOCYTE [1]: 50 CELLS/uL
- ABSOLUTE SEGMENTED NEUTROPHIL [1]: 516.83 CELLS/uL
- BASOPHIL [1]: 0%
- EOSINOPHIL [1]: 0.17%
- ERYTHROCYTE COUNT [1]: 5.44 x10E6/uL
- HEMATOCRIT [1]: 33.88%
- HEMOGLOBIN [1]: 13.23 G/DL
- LEUKOCYTE COUNT [1]: 10.65 x10E3/uL
- LYMPHOCYTE [1]: 94.67%
- MEAN CORPUSCULAR HEMOGLOBIN [1]: 24.37 pg
- MEAN CORPUSCULAR HEMOGLOBIN CONCENTRATION [1]: 39.05 G/DL
- MEAN CORPUSCULAR VOLUME [1]: 62.38 fL
- MONOCYTE [1]: 0.67%
- NEUTROPHIL [1]: 4.5%
- NUCLEATED RED BLOOD CELLS [1]: 0.33 /100WBC
- PLATELET COUNT [1]: 414.5 x10E3/uL
- ALANINE AMINOTRANSFERASE [1]: 72 u/L
- ALBUMIN [1]: 3.75 G/DL
- ALKALINE PHOSPHATASE [1]: 375 u/L
- ASPARTATE AMINOTRANSFERASE [1]: 87.5 u/L
- BLOOD UREA NITROGEN [1]: 14 mg/dL
- CARBON DIOXIDE [1]: 27.5 mmol/L
- CHLORIDE [1]: 95.83 MEQ/L
- CHOLESTEROL [1]: 68.5 mg/dL
- CREATINE PHOSPHOKINASE [1]: 284.33 u/L
- CREATININE [1]: 0.16 mg/dL
- GLUCOSE [1]: 156.67 mg/dL
- LACTATE DEHYDROGENASE [1]: 101.83 u/L
- LIPASE [1]: 9.67 u/L
- PHOSPHORUS [1]: 10.33 mg/dL
- POTASSIUM [1]: 5.22 MEQ/L
- SODIUM [1]: 137.67 MEQ/L
- TOTAL BILIRUBIN [1]: 0.13 mg/dL
- TOTAL PROTEIN [1]: 5.43 G/DL
- URIC ACID [1]: 0.8 mg/dL
- ABSOLUTE BASOPHIL [2]: 0 CELLS/uL
- ABSOLUTE EOSINOPHIL [2]: 20.67 CELLS/uL
- ABSOLUTE LYMPHOCYTE [2]: 11518.33 CELLS/uL
- ABSOLUTE MONOCYTE [2]: 47 CELLS/uL
- ABSOLUTE SEGMENTED NEUTROPHIL [2]: 614 CELLS/uL
- BASOPHIL [2]: 0%
- EOSINOPHIL [2]: 0.17%
- ERYTHROCYTE COUNT [2]: 5.61 x10E6/uL
- HEMATOCRIT [2]: 34.25%
- HEMOGLOBIN [2]: 13.38 G/DL
- LEUKOCYTE COUNT [2]: 12.2 x10E3/uL
- LYMPHOCYTE [2]: 94.33%
- MEAN CORPUSCULAR HEMOGLOBIN [2]: 23.83 pg
- MEAN CORPUSCULAR HEMOGLOBIN CONCENTRATION [2]: 39.08 G/DL
- MEAN CORPUSCULAR VOLUME [2]: 61.03 fL
- MONOCYTE [2]: 0.33%
- NEUTROPHIL [2]: 5.17%
- NUCLEATED RED BLOOD CELLS [2]: 0 /100WBC
- PLATELET COUNT [2]: 941.83 x10E3/uL
- ALANINE AMINOTRANSFERASE [2]: 68.83 u/L
- ALBUMIN [2]: 4.12 G/DL
- ALKALINE PHOSPHATASE [2]: 492.67 u/L
- ASPARTATE AMINOTRANSFERASE [2]: 83.33 u/L
- BLOOD UREA NITROGEN [2]: 14 mg/dL
- CARBON DIOXIDE [2]: 37 mmol/L
- CHLORIDE [2]: 98.67 MEQ/L
- CHOLESTEROL [2]: 56.5 mg/dL
- CREATINE PHOSPHOKINASE [2]: 167.33 u/L
- CREATININE [2]: 0.17 mg/dL
- GLUCOSE [2]: 157.5 mg/dL
- LACTATE DEHYDROGENASE [2]: 104.83 u/L
- LIPASE [2]: 10 u/L
- PHOSPHORUS [2]: 10.43 mg/dL
- POTASSIUM [2]: 5.46 MEQ/L
- SODIUM [2]: 143.87 MEQ/L
- TOTAL BILIRUBIN [2]: 0.17 mg/dL
- TOTAL PROTEIN [2]: 5.72 G/DL
- URIC ACID [2]: 0.85 mg/dL
- ABSOLUTE BASOPHIL [3]: 0 CELLS/uL
- ABSOLUTE EOSINOPHIL [3]: 0 CELLS/uL
- ABSOLUTE LYMPHOCYTE [3]: 5878.33 CELLS/uL
- ABSOLUTE MONOCYTE [3]: 47.67 CELLS/uL
- ABSOLUTE SEGMENTED NEUTROPHIL [3]: 707.33 CELLS/uL
- BASOPHIL [3]: 0%
- EOSINOPHIL [3]: 0%
- ERYTHROCYTE COUNT [3]: 5.01 x10E6/uL
- HEMATOCRIT [3]: 31.07%
- HEMOGLOBIN [3]: 12.3 G/DL
- LEUKOCYTE COUNT [3]: 6.63 x10E3/uL
- LYMPHOCYTE [3]: 88.67%
- MEAN CORPUSCULAR HEMOGLOBIN [3]: 24.73 pg
- MEAN CORPUSCULAR HEMOGLOBIN CONCENTRATION [3]: 39.77 G/DL
- MEAN CORPUSCULAR VOLUME [3]: 62.1 fL
- MONOCYTE [3]: 0.67%
- NEUTROPHIL [3]: 10.67%
- NUCLEATED RED BLOOD CELLS [3]: 0 /100WBC
- PLATELET COUNT [3]: 848.67 x10E3/uL
- ALANINE AMINOTRANSFERASE [3]: 79.33 u/L
- ALBUMIN [3]: 3.7 G/DL
- ALKALINE PHOSPHATASE [3]: 386.33 u/L
- ASPARTATE AMINOTRANSFERASE [3]: 90.33 u/L
- BLOOD UREA NITROGEN [3]: 13.33 mg/dL
- CARBON DIOXIDE [3]: 25 mmol/L
- CHLORIDE [3]: 96 MEQ/L
- CHOLESTEROL [3]: 74 mg/dL
- CREATINE PHOSPHOKINASE [3]: 147.33 u/L
- CREATININE [3]: 0.21 mg/dL
- GLUCOSE [3]: 143.33 mg/dL
- LACTATE DEHYDROGENASE [3]: 107.33 u/L
- LIPASE [3]: 12.67 u/L
- PHOSPHORUS [3]: 10.57 mg/dL
- POTASSIUM [3]: 5.5 MEQ/L
- SODIUM [3]: 138.4 MEQ/L
- TOTAL BILIRUBIN [3]: 0.13 mg/dL
- TOTAL PROTEIN [3]: 5.33 G/DL
- URIC ACID [3]: 0.87 mg/dL
